Source: patent publication US8648169B2, “Methods of use of Trk receptor modulators” (The Royal Institution for the Advancement of …, priority 2006, dated 2014)
“And” between values parts separate entries of the source, which are not always exact repeats. Identical values can stand only once. “Also recorded” adds a separate entry of the source. No end group written: not given here.

Columns and labels:
[1] = tested on: intraocular pressure (IOP) of rat eyes
Excerpt: High IOP was induced in rat eyes, by reducing aqueous humor outflow through episcleral vein cauterization, while the contralateral eyes were sham-operated and were used as controls (FIG. 2).

[2] = tested on: retinal ganglion cells (RGCs); assay: RGC loss in ocular hypertension (glaucoma) model, retrogradely labeled surviving RGCs counted in flat mounted retinas;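 for all read-outs here: female Wistar rats aged 8 weeks with three episcleral veins cauterized in the right eye, sham-operated left eye as normal IOP control, at least six retinas averaged per group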; conditions: for % RGCs loss at day 49 (vs. Normal) / % RGCs loss at day 42 (vs. Norma): cauterized eye; for RGC loss (% of normal IOP): +daily betaxolol (days 4-35)
Procedure: Using retrograde tracers, surviving RGCs were labeled at the cell soma and flat retinal spreads were analyzed for RGC numbers (Table 2).
Surviving RGCs, identified by retrograde labeling, were counted at day 42 post-surgery. In this protocol, the TrkA agonist or controls were not given between days 21 and 42, to evaluate whether any protection could be long-lived. […] Each data point represents the average of at least 6 retinas/experimental group±sd. […] Peptidomimetic D3 (TrkA agonist) or controls were injected intraocularly, each injection at 1 μg in 1 μl. […] Retrogradely labeled surviving RGCs at day 42 post-cauterization were counted in flat mounted retinas (except rows 3 and 4 that were terminated at days 14 and 28). Two investigators counted the RGCs, with one unaware of the groups.
Episcleral cauterization was performed under anesthesia in Wistar rats, female, 8 weeks of age. After a conjunctival incision, extra-ocular muscles were isolated and the major limbal draining veins were identified based on location, relative immobility, larger caliber and branching pattern. Cauterization of three episcleral vessels in the right eye were done with a 30″ cautery tip. The left eye in each animal was used as normal IOP control after sham-surgery (conjuctival incisions with no cauterization). […] Planar ophthalmoscopy was used to confirm normal perfusion of the retina at elevated IOP. […] IOP was measured using a Tonopen XL tonometer under light anesthesia (intramuscular injection of ketamine, 4 mg/kg; xylazine, 0.32 mg/kg; and acepromazine, 0.4 mg/kg). Initially IOP was measured daily (three consecutive readings are taken each time) and then weekly until termination.
A puncture was made in the eye wall with a 30 G needle to place a cannula in the orbit. The tip of the needle was inserted at a 45° angle through the sclera into the vitreous body. This route of administration avoided injury to eye structures.

p75 receptor = target: T1, p75 receptor (Homo sapiens, UniProt P08138); conditions: cited from earlier work
T1 sequence (P08138 29-427): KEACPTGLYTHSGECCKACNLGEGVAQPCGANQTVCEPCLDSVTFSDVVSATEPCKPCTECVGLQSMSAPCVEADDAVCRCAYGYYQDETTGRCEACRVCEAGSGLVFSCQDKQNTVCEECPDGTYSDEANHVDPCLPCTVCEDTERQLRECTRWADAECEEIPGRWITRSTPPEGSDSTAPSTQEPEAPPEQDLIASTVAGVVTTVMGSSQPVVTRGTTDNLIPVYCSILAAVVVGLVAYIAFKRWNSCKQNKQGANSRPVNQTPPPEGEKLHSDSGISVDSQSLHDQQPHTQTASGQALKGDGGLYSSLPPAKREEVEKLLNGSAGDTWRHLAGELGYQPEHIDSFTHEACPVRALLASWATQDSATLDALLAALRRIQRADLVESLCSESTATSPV

TrkA = TrkA (Homo sapiens, UniProt P04629); conditions: irrespective of whether the p75 receptor is expressed; cited from earlier work
Sequence of TrkA (P04629 33-796, species assumed): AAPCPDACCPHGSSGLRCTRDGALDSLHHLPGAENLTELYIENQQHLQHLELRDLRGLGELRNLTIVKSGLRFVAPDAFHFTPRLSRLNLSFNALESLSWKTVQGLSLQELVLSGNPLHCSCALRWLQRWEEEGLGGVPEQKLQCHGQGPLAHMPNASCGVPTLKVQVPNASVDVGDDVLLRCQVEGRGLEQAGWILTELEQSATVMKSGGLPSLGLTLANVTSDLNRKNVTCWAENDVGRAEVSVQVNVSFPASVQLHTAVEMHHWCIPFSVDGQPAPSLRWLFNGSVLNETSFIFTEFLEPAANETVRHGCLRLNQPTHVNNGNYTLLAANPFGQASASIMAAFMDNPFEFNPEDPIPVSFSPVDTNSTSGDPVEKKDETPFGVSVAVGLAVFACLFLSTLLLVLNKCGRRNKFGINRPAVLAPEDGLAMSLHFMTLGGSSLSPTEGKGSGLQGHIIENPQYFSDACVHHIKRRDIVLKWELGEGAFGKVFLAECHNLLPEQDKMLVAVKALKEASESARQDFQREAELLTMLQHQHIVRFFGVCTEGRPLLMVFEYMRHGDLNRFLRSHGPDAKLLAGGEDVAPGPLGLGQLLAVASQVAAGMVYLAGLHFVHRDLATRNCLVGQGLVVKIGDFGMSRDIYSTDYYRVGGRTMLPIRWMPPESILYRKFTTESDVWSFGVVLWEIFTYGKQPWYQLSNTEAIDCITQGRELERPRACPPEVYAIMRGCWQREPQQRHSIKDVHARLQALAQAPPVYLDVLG

CNS = conditions: cited from earlier work
axotomized RGCs [3] = assay: RGC survival in optic nerve axotomy; type: in vivo
Excerpt: It is important to contrast the results in this glaucoma model with those published in optic nerve axotomy (where the optic nerve is sectioned or crushed and RGC axons are damaged). The two are very different models of RGC damage, where glaucoma is chronic and progressive and is an intraocular disease while axotomy is acute and is an extraocular disease. Thus, in optic nerve axotomy NTFs have been applied successfully. The survival of an axotomized optic nerve was promoted by NGF, BDNF, NT-4, CNTF, as well as bFGF, and GDNF.

axotomized RGCs [4] = conditions: other studies; cited from earlier work
[5] = daily betaxolol days 14-49 (~17 days of high IOP), intraocular injections at days 14 & 21
[6] = daily betaxolol days 14 to 42 (~17 days of high IOP), intraocular injections 1 μg at days 14 & 21
[7] = no betaxolol, 42 days of high IOP, intraocular injections 1 μg at days 14 & 21
[8] = no betaxolol, 49 days of high IOP, intraocular injections at days 14 & 21

CC(C)NCC(O)COc1ccc(CCOCC2CC2)cc1 (stereo not drawn) [Betaxolol, betaxolol, reference compound]
IOP by day 7 ([1]; cauterized rats receiving daily topical betaxolol): normal IOPs
effect on normal IOP of non-cauterized eyes ([1]; daily topical betaxolol, normal eyes): no significant effect
% RGCs loss at day 49 (vs. Normal) ([2]; daily betaxolol days 14-49 alone, no intraocular injection): 27 ± 5%
% RGCs loss at day 49 (vs. Normal) ([2]; daily betaxolol days 14-49 alone, no intraocular injection, listed as betaxolol): 27%
% RGCs loss at day 42 (vs. Norma) ([2]; daily betaxolol days 14 to 42 alone, no intraocular injection): 21 ± 2%
% RGCs loss at day 42 (vs. Norma) ([2]; daily betaxolol days 14 to 42 alone, no intraocular injection, listed as betaxolol): 21%
RGC loss (% of normal IOP) ([2]; day 0 post-cautery): 0%
RGC loss (% of normal IOP) ([2]; day 7 post-cautery): 3 ± 3%
RGC loss (% of normal IOP) ([2]; day 14 post-cautery): 4 ± 3%
RGC loss (% of normal IOP) ([2]; day 21 post-cautery): 7 ± 3%
RGC loss (% of normal IOP) ([2]; day 28 post-cautery): 10 ± 4%
RGC loss (% of normal IOP) ([2]; day 35 post-cautery): 14 ± 2%
RGC loss (% of normal IOP) ([2]; day 42 post-cautery): 20 ± 5%

NCCCC[C@@H]1NC(=O)C(CCC(=O)O)NC(=O)c2cc([N+](=O)[O-])ccc2OCCC(C(=O)NCC(=O)O)NC1=O (stereo partly drawn) [D3]
binding to p75 (p75 receptor): does not bind
activity at TrkA (TrkA): selective partial agonist
effect on cholinergic neurons in the CNS (CNS; evaluated previously, spatial memory tests): protect the number, phenotype, and function of cholinergic neurons
% RGCs loss at day 49 (vs. Normal) [2, 5]: 18 ± 6%
% RGCs loss at day 42 (vs. Norma) [2, 6]: 11% and 11 ± 4%
% RGCs loss at day 42 (vs. Norma) [2, 7]: 29% and 29 ± 3%
% RGCs loss at day 49 (vs. Normal) [2, 8]: 26 ± 6%
protection of RGCs, formula (testloss−day14loss)/(day42loss−day14loss)*100 ([2]; day 42, intraocular injections at days 14 and 21, no betaxolol): ~25%
protection of RGCs ([2]; day 42, intraocular injections at days 14 and 21 in combination with daily betaxolol): > 90%
effect on RGC survival / apoptosis ([2]; day 49 glaucoma, intraocular injections at days 14 and 21, alone or with betaxolol): markedly reduced RGC apoptosis
survival of axotomized RGCs (axotomized RGCs [3]): strong survival-promoting effects

NGF: Nerve Growth Factor, neurotrophin that binds TrkA and p75
% RGCs loss at day 42 (vs. Norma) [2, 6]: 19 ± 4%
% RGCs loss at day 42 (vs. Norma) [2, 7]: 42 ± 5%
protection of RGCs from death ([2]; day 42 glaucoma, intraocular injections, with or without betaxolol): did not protect

YCATDIKGKECY (also: cyclic) [C(28-35) peptide]
protection of RGCs in vivo in optic nerve axotomy (axotomized RGCs [4]): short-term protection
effect on p75-NGF interactions (p75 receptor): antagonist
in vivo stability and efficacy in the CNS (CNS; previous in vivo studies): in vivo stability and efficacy
% RGCs loss at day 49 (vs. Normal) [2, 5]: 29 ± 4%
% RGCs loss at day 49 (vs. Normal) [2, 8]: 32 ± 11%
effect on RGC survival / apoptosis ([2]; rat, in vivo): did not enhance RGC survival; also recorded: did not prevent or reduce RGC death
